Assay results: patent US20260248799A1, “COMBINATIONS OF RETINALDEHYDE DEHYDROGENASE 1 (RALDH1) INHIBITORS AND IMMUNOSTIMULATORS AND METHODS USING SAME” (The Trustees of the University of Pennsylvania, priority 2023, published 2026)

Assays:
monocytes in Huh7 tumors = experiment: Differentiation of human monocytes injected into Huh7 tumors in NU/J mice; assay type: in vivo, mouse; conditions: 10 mg/kg, i.p, daily
From the text: FIGS. 22A-22E: RALDH1 inhibition blocks RA-mediated effects of HCC on monocyte differentiation. FIGS. 22A-22B: Circulating primary human monocytes from donors (FIG. 22A) or murine monocytes from bone marrow (FIG. 22B) were cocultured with SNU398 (Human HCC) cells or treated with SNU398-conditioned media (CM) in a DC differentiation system (GM-CSF and IL-4). Two-color histograms show the frequencies of DCs (CD11c^+CD1a^+ for human and CD11c^+MHCII^+ for mouse). The presence of SNU398 or its CM suppressed DC differentiation, which is reversed when SNU398 cells are treated with C86. Three or more independent experiments were performed with at least three replicates per experimental group. Unpaired t test, two-tailed. FIG. 22C: Huh7 (human HCC) cells were subcutaneously injected into flanks of NU/J mice. 12 days later the tumor size was about 50 mm^3 and C86 or vehicle treatment (10 mg/kg, i.p, daily injection) was started. […] The frequencies of the host (murine) DCs (CD45^+F4/80^−CD11C^+MHCII-high) and macrophages (CD45^+F4/80^+) are quantified in a bar graph. […] Shown are the representative FCM plot (histogram) and DC quantification (bar graph). […]
Monocytes were isolated (as described above) from mouse bone marrow of C57BL/6 mice and counted. […] Tumors were harvested at specified time points and analyzed by flow cytometry. […]

Phosphodiesterase PDE3 = experiment: Safetyscreen: PDE3; assay type: biochemical, human; conditions: 10 μM
Chemokine CCR1 = target: T1, Chemokine CCR1 (Homo sapiens, UniProt P32246); experiment: Safetyscreen: CCR1; assay type: binding; conditions: read-out: % Inh. Chemokine CCR1
T1 construct: purchased Eurofins Cereps Panlabs

[1] = target: T2, Serotonin (5-Hydroxytryptamine) 5-HT1A (Homo sapiens, UniProt P08908); experiment: Safetyscreen: 5-HT1A; assay type: binding; conditions: read-out: % Inh. Serotonin (5-Hydroxytryptamine) 5-HT1A
T2 construct: Eurofins Cereps Panlabs (contract panel)
T2 sequence (P08908 whole entry): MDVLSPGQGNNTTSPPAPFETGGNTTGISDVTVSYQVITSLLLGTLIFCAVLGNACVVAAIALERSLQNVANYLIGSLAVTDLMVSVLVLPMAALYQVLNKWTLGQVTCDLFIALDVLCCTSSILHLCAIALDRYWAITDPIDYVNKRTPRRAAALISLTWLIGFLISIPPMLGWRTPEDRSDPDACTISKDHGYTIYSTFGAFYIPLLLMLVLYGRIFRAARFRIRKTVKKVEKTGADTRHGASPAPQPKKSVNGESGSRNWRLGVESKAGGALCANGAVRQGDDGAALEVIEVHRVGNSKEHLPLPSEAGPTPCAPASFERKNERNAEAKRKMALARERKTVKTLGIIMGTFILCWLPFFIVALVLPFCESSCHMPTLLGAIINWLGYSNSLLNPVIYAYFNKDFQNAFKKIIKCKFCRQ

T1 sequence (P32246 whole entry): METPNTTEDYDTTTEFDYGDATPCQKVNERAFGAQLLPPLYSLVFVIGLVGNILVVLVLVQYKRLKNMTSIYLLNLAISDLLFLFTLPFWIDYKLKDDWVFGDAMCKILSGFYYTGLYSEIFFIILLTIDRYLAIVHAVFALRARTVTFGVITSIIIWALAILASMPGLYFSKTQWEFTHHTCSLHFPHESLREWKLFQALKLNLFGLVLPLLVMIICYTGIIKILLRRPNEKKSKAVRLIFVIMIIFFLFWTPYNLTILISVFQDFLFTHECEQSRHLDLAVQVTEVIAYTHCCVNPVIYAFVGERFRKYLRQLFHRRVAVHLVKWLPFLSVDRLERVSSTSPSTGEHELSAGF

Structure (SMILES): CS(=O)(=O)N1CCN(C(=O)c2cnc3ccc(F)cc3c2N2CCC(C#N)(c3ccccc3)CC2)CC1 [Compound C-86, 1-(6-fluoro-3-(4-(methylsulfonyl)piperazine-1-carbonyl)quinolin-4-yl)-4-phenylpiperidine-4-carbonitrile]
- frequency of host (murine) DCs and macrophages in the TME (monocytes in Huh7 tumors): increased frequency of DCs and reduced frequency of macrophages
- DC differentiation from transplanted human monocytes (monocytes in Huh7 tumors; five days after monocyte injection): increased DC differentiation
- % Inh. Phosphodiesterase PDE3 (Phosphodiesterase PDE3): −23%
- inhibition at 10 µM (Chemokine CCR1): 18%
- inhibition at 10 µM [1]: 5%
